Data published in PubChem BioAssay AID1259407 (Chemical Carcinogenesis Research Information System (CCRIS), 2018).
The source made the active and inactive calls. How the calls were made is not given here.

System: CCRIS mutagenicity, Ames/micronucleus/aberration tests
Assay: CCRIS mutagenicity studies
[1] = Test System: MOUSE LYMPHOMA, Strain/Indicator: L5178Y (TK+/TK-), Metabolic Activation: NONE, Method: SUSPENSION/PLATE
[2] = Test System: AMES SALMONELLA TYPHIMURIUM, Strain/Indicator: TA98, Metabolic Activation: NONE, Method: PREINCUBATION
[3] = Test System: AMES SALMONELLA TYPHIMURIUM, Strain/Indicator: TA100, Metabolic Activation: NONE, Method: PREINCUBATION
[4] = Test System: AMES SALMONELLA TYPHIMURIUM, Strain/Indicator: TA1535, Metabolic Activation: NONE, Method: PREINCUBATION
[5] = Test System: AMES SALMONELLA TYPHIMURIUM, Strain/Indicator: TA1537, Metabolic Activation: NONE, Method: PREINCUBATION

In the case of `FC(C(F)(F)F)C(F)(F)F`, the mutagenic call (Test System: AMES SALMONELLA TYPHIMURIUM, Strain/Indicator: TA98, Metabolic Activation: NONE, Method: DESICCATOR) is reported as “inactive; negative”, the mutagenic call (Test System: AMES SALMONELLA TYPHIMURIUM, Strain/Indicator: TA98, Metabolic Activation: NONE, Method: VAPOR CHAMBER) is reported as “inactive; negative” and the mutagenic call (Test System: AMES SALMONELLA TYPHIMURIUM, Strain/Indicator: TA98, Metabolic Activation: RAT, LIVER, S-9, AROCLOR 1254, Method: DESICCATOR) is reported as “inactive; negative”. The mutagenic call (Test System: AMES SALMONELLA TYPHIMURIUM, Strain/Indicator: TA98, Metabolic Activation: RAT, LIVER, S-9, AROCLOR 1254, Method: VAPOR CHAMBER) was “inactive; negative”, the mutagenic call (Test System: AMES SALMONELLA TYPHIMURIUM, Strain/Indicator: TA100, Metabolic Activation: NONE, Method: DESICCATOR) was “inactive; negative” and the mutagenic call (Test System: AMES SALMONELLA TYPHIMURIUM, Strain/Indicator: TA100, Metabolic Activation: NONE, Method: VAPOR CHAMBER) was “inactive; negative”. For the same molecule, the mutagenic call (Test System: AMES SALMONELLA TYPHIMURIUM, Strain/Indicator: TA100, Metabolic Activation: RAT, LIVER, S-9, AROCLOR 1254, Method: DESICCATOR) was “inactive; negative”, the mutagenic call (Test System: AMES SALMONELLA TYPHIMURIUM, Strain/Indicator: TA100, Metabolic Activation: RAT, LIVER, S-9, AROCLOR 1254, Method: VAPOR CHAMBER) was “inactive; negative” and the mutagenic call (Test System: AMES SALMONELLA TYPHIMURIUM, Strain/Indicator: TA1535, Metabolic Activation: NONE, Method: DESICCATOR) was “inactive; negative”. The mutagenic call (Test System: AMES SALMONELLA TYPHIMURIUM, Strain/Indicator: TA1535, Metabolic Activation: NONE, Method: VAPOR CHAMBER) was “inactive; negative”, the mutagenic call (Test System: AMES SALMONELLA TYPHIMURIUM, Strain/Indicator: TA1535, Metabolic Activation: RAT, LIVER, S-9, AROCLOR 1254, Method: DESICCATOR) was “inactive; negative” and the mutagenic call (Test System: AMES SALMONELLA TYPHIMURIUM, Strain/Indicator: TA1535, Metabolic Activation: RAT, LIVER, S-9, AROCLOR 1254, Method: VAPOR CHAMBER) was “inactive; negative”. For the same molecule, the mutagenic call (Test System: AMES SALMONELLA TYPHIMURIUM, Strain/Indicator: TA1537, Metabolic Activation: NONE, Method: DESICCATOR) was “inactive; negative”, the mutagenic call (Test System: AMES SALMONELLA TYPHIMURIUM, Strain/Indicator: TA1537, Metabolic Activation: NONE, Method: VAPOR CHAMBER) was “inactive; negative” and the mutagenic call (Test System: AMES SALMONELLA TYPHIMURIUM, Strain/Indicator: TA1537, Metabolic Activation: RAT, LIVER, S-9, AROCLOR 1254, Method: DESICCATOR) was “inactive; negative”. For the same molecule, the mutagenic call (Test System: AMES SALMONELLA TYPHIMURIUM, Strain/Indicator: TA1537, Metabolic Activation: RAT, LIVER, S-9, AROCLOR 1254, Method: VAPOR CHAMBER) was “inactive; negative”, the mutagenic call (Test System: AMES SALMONELLA TYPHIMURIUM, Strain/Indicator: TA1538, Metabolic Activation: NONE, Method: DESICCATOR) was “inactive; negative” and the mutagenic call (Test System: AMES SALMONELLA TYPHIMURIUM, Strain/Indicator: TA1538, Metabolic Activation: NONE, Method: VAPOR CHAMBER) was “inactive; negative”. For the same molecule, the mutagenic call (Test System: AMES SALMONELLA TYPHIMURIUM, Strain/Indicator: TA1538, Metabolic Activation: RAT, LIVER, S-9, AROCLOR 1254, Method: DESICCATOR) was “inactive; negative”, the mutagenic call (Test System: AMES SALMONELLA TYPHIMURIUM, Strain/Indicator: TA1538, Metabolic Activation: RAT, LIVER, S-9, AROCLOR 1254, Method: VAPOR CHAMBER) was “inactive; negative” and the mutagenic call [1] was “inactive; negative”. The mutagenic call (Test System: MOUSE LYMPHOMA, Strain/Indicator: L5178Y (TK+/TK-), Metabolic Activation: RAT, LIVER, S-9, AROCLOR 1254, Method: SUSPENSION/PLATE) was “inactive; negative”.
`OCc1cccc2c1-c1cccc3cccc-2c13` was tested, and the mutagenic call (Test System: AMES SALMONELLA TYPHIMURIUM, Strain/Indicator: TA98, Metabolic Activation: NONE, Method: STANDARD PLATE) was “inactive; negative” and the mutagenic call (Test System: AMES SALMONELLA TYPHIMURIUM, Strain/Indicator: TA100, Metabolic Activation: NONE, Method: STANDARD PLATE) was “inactive; negative”.
For `CC#N`, the mutagenic call (End Point: IN VITRO CHROMOSOMAL ABERRATIONS, Test System: CHINESE HAMSTER OVARY CELLS, Metabolic Activation: NONE) was “inactive; negative”, the mutagenic call (End Point: IN VITRO CHROMOSOMAL ABERRATIONS, Test System: CHINESE HAMSTER OVARY CELLS, Metabolic Activation: RAT, LIVER, S-9, AROCLOR 1254) was “active; positive; statistically significant increase, but not dose-related” and the mutagenic call (Test System: AMES SALMONELLA TYPHIMURIUM, Strain/Indicator: TA98, Metabolic Activation: HAMSTER, LIVER, S-9, AROCLOR 1254 (10 OR 30%), Method: PREINCUBATION) was “inactive; negative”. The mutagenic call [2] was “inactive; negative”, the mutagenic call (Test System: AMES SALMONELLA TYPHIMURIUM, Strain/Indicator: TA98, Metabolic Activation: RAT, LIVER, S-9, ACETONITRILE (AUTOINDUCTION), Method: PREINCUBATION) was “inactive; negative” and the mutagenic call (Test System: AMES SALMONELLA TYPHIMURIUM, Strain/Indicator: TA98, Metabolic Activation: RAT, LIVER, S-9, AROCLOR 1254 (10 OR 30%), Method: PREINCUBATION) was “inactive; negative”. For the same molecule, the mutagenic call (Test System: AMES SALMONELLA TYPHIMURIUM, Strain/Indicator: TA98, Metabolic Activation: RAT, LIVER, S-9, PHENOBARBITONE, Method: PREINCUBATION) was “inactive; negative”, the mutagenic call (Test System: AMES SALMONELLA TYPHIMURIUM, Strain/Indicator: TA100, Metabolic Activation: HAMSTER, LIVER, S-9, AROCLOR 1254 (10 OR 30%), Method: PREINCUBATION) was “inactive; negative” and the mutagenic call [3] was “inactive; negative”. The mutagenic call (Test System: AMES SALMONELLA TYPHIMURIUM, Strain/Indicator: TA100, Metabolic Activation: RAT, LIVER, S-9, ACETONITRILE (AUTOINDUCTION), Method: PREINCUBATION) was “inactive; negative”, the mutagenic call (Test System: AMES SALMONELLA TYPHIMURIUM, Strain/Indicator: TA100, Metabolic Activation: RAT, LIVER, S-9, AROCLOR 1254 (10 OR 30%), Method: PREINCUBATION) was “inactive; negative” and the mutagenic call (Test System: AMES SALMONELLA TYPHIMURIUM, Strain/Indicator: TA100, Metabolic Activation: RAT, LIVER, S-9, PHENOBARBITONE, Method: PREINCUBATION) was “inactive; negative”. The mutagenic call (Test System: AMES SALMONELLA TYPHIMURIUM, Strain/Indicator: TA1535, Metabolic Activation: HAMSTER, LIVER, S-9, AROCLOR 1254 (10 OR 30%), Method: PREINCUBATION) was “inactive; negative”, the mutagenic call [4] was “inactive; negative” and the mutagenic call (Test System: AMES SALMONELLA TYPHIMURIUM, Strain/Indicator: TA1535, Metabolic Activation: RAT, LIVER, S-9, AROCLOR 1254 (10 OR 30%), Method: PREINCUBATION) was “inactive; negative”. The mutagenic call (Test System: AMES SALMONELLA TYPHIMURIUM, Strain/Indicator: TA1537, Metabolic Activation: HAMSTER, S-9, AROCLOR 1254 (10 OR 30%), Method: PREINCUBATION) was “inactive; negative”, the mutagenic call [5] was “inactive; negative” and the mutagenic call (Test System: AMES SALMONELLA TYPHIMURIUM, Strain/Indicator: TA1537, Metabolic Activation: RAT, LIVER, S-9, AROCLOR 1254 (10 OR 30%), Method: PREINCUBATION) was “inactive; negative”.
`CCN(CC)C(=S)SSC(=S)N(CC)CC` was tested, and the mutagenic call (Test System: AMES SALMONELLA TYPHIMURIUM, Strain/Indicator: TA98, Metabolic Activation: HAMSTER, LIVER, S-9, AROCLOR 1254 (10%), Method: PREINCUBATION) was “inactive; negative”, the mutagenic call [2] was “inactive; negative” and the mutagenic call (Test System: AMES SALMONELLA TYPHIMURIUM, Strain/Indicator: TA98, Metabolic Activation: RAT, LIVER, S-9, AROCLOR 1254 (10%), Method: PREINCUBATION) was “inactive; negative”. For the same molecule, the mutagenic call (Test System: AMES SALMONELLA TYPHIMURIUM, Strain/Indicator: TA100, Metabolic Activation: HAMSTER, LIVER, S-9, AROCLOR 1254 (10%), Method: PREINCUBATION) was “inactive; negative”, the mutagenic call [3] was “inactive; negative” and the mutagenic call (Test System: AMES SALMONELLA TYPHIMURIUM, Strain/Indicator: TA100, Metabolic Activation: RAT, LIVER, S-9, AROCLOR 1254 (10%), Method: PREINCUBATION) was “inactive; negative”. The mutagenic call (Test System: AMES SALMONELLA TYPHIMURIUM, Strain/Indicator: TA1535, Metabolic Activation: HAMSTER, LIVER, S-9, AROCLOR 1254 (10%), Method: PREINCUBATION) was “inactive; negative”, the mutagenic call [4] was “inactive; negative” and the mutagenic call (Test System: AMES SALMONELLA TYPHIMURIUM, Strain/Indicator: TA1535, Metabolic Activation: RAT, LIVER, S-9, AROCLOR 1254 (10%), Method: PREINCUBATION) was “inactive; negative”. The mutagenic call (Test System: AMES SALMONELLA TYPHIMURIUM, Strain/Indicator: TA1537, Metabolic Activation: HAMSTER, LIVER, S-9, AROCLOR 1254 (10%), Method: PREINCUBATION) was “inactive; negative”, the mutagenic call [5] was “inactive; negative” and the mutagenic call (Test System: AMES SALMONELLA TYPHIMURIUM, Strain/Indicator: TA1537, Metabolic Activation: RAT, LIVER, S-9, AROCLOR 1254 (10%), Method: PREINCUBATION) was “inactive; negative”. The mutagenic call [1] was “active; positive”.
